Test results reported in ChEMBL document CHEMBL2331360, “QSAR studies of sulfamate and sulfamide inhibitors targeting human carbonic anhydrase isozymes I, II, IX and XII” (Bioorg Med Chem, 2013).

Legend:
[1] = biological target: Carbonic anhydrase 9 (Homo sapiens) (UniProt Q16790)
Description: Inhibition of human carbonic anhydrase-9

[2] = biological target: Carbonic anhydrase 2 (Homo sapiens) (UniProt P00918)
Description: Inhibition of human carbonic anhydrase-2

log(43000/Ki) [1]	log(43000/Ki) [2]	SMILES
3.35	2.02	CC(NC(=O)Nc1ccc(NS(N)(=O)=O)cc1)c1cccc2ccccc12 (stereo not drawn)
2.64	1.8	CC(C)c1ccccc1NC(=O)Nc1ccc(NS(N)(=O)=O)cc1
3	2.13	NS(=O)(=O)Nc1ccc(NC(=O)Nc2ccc(Cl)cc2)cc1
3.59	2.44	NS(=O)(=O)Nc1ccc(NC(=O)NCCc2ccccc2)cc1
2.47	1.68	NS(=O)(=O)Nc1ccc(NC(=O)Nc2ccccc2-c2ccccc2)cc1
3.43	2.14	CCCCOc1ccc(NC(=O)Nc2ccc(NS(N)(=O)=O)cc2)cc1
3.63	2.47	NS(=O)(=O)Nc1ccc(NC(=O)NCc2ccccc2)cc1

Further lines, the compound ahead of its results:

SMILES	log(43000/Ki) [1]	log(43000/Ki) [2]
NS(=O)(=O)Nc1ccc(NC(=O)Nc2cccc([N+](=O)[O-])c2)cc1	3.43	2.01
COc1ccc(C)cc1NC(=O)Nc1ccc(NS(N)(=O)=O)cc1	3.03	1.99
NS(=O)(=O)Nc1ccc(NC(=O)NC2CCCCC2)cc1	2.55	2.08
NS(=O)(=O)Oc1ccc(NC(=O)NC23CC4CC(CC(C4)C2)C3)cc1	3.31	1.96
Cc1cc(C)cc(NC(=O)Nc2ccc(NS(N)(=O)=O)cc2)c1	3.63	1.8
NS(=O)(=O)Nc1ccc(NC(=O)NCc2ccco2)cc1	3.35	2.1
COc1ccc(NC(=O)Nc2ccc(NS(N)(=O)=O)cc2)c(C)c1	3.31	2.14
